Earlier results, collected in patent US20100278946A1, “HERBAL COMPOSITIONS COMPRISING PLANT MATERIAL OF ARTEMISIA HERBA-ALBA (ASSO) ASTERACEAE AND/OR EXTRACTS THEREOF” (priority 2007, published 2010).
Like-named read-outs stand apart in the source and are kept apart here.

Columns and labels:
[1] = system: gamma-aminobutyric acid (GABA) type A receptor; conditions: rat dorsal root ganglion neurons
[2] = system: noncompetitive blocker site of the GABA gated chloride channel
[3] = 2.5 min after administration of alpha-thujone
[4] = 30 min after administration of alpha-thujone, 40-60 mg/kg

CC(C)[C@]12CC(=O)[C@H](C)[C@H]1C2 [alpha-thujone]
effect on GABA-induced peak currents [1]: suppressed | time to death after tonic convulsion (mice; mice at the higher dose (60 mg/kg)): ≤ 1 min | mortality (mice; mice, dose of 30 mg/kg): no death | mortality (mice; mice, dose of 60 mg/kg): 100% | i.p. LD50 (mice; mice, i.p.): about 45 mg/kg | mode of inhibition of EBOB binding [2]: competitive inhibitor | potency compared with 7-hydroxy-alpha-thujone (fold more potent) ([2]; [3H]EBOB binding assay): 56 fold | level in the brain [3]: 11 ppm | level in the brain [4]: 0.3-1.0 ppm

CN1C(=O)CN=C(c2ccccc2)c2cc(Cl)ccc21 [diazepam]
survival of mice given an otherwise lethal dose of alpha-thujone (mice; intraperitoneal administration 15 min before alpha-thujone at 100 mg/kg): almost all of the mice surviving

CC1C(=O)CC2(C(C)C)CC12 (stereo not drawn) [Beta-thujone, beta-thujone]
toxicity compared with alpha-thujone (mice; mice (Rice and Wilson, 1976) and Drosophila): less toxic | potency relative to alpha-thujone (fold less potent) ([2]; [3H]EBOB assay): 2.3 fold

CC1C(=O)CC2(C(C)(C)O)CC12 (stereo not drawn) [7-hydroxy-alpha-thujone]
level in the brain [3]: 29 ppm | level in the brain [4]: 1.5-8.4 ppm
